Experimental data taken from patent US11939361B2, “Compositions of peptide inhibitors of Interleukin-23 receptor” (Janssen Pharmaceutica NV, priority 2020, dated 2024).
Where two headings read alike, the source gives them in different places.

Assays:
[1] = tested on: IL-23 and IL-1β-induced IL-17A secretion in whole blood; assay: Rat whole blood assay ex vivo after oral dosing, IL-17A ELISA; format: in vivo, Sprague-Dawley rats; conditions: for inhibition of IL-23 and IL-1β-induced IL-17A secretion in whole blood: p.o., blood 2 h after dosing; for IC50: orally dosed rats, read-out: dilution-adjusted ex vivo IC50
Description: A rat whole blood assay was used to evaluate the systemic pharmacologic activity of the orally administered peptide of SEQ ID NO: 1. After oral dosing Sprague-Dawley rats with the peptide of SEQ ID NO: 1, blood was drawn from the rats and stimulated ex-vivo with rat IL-23 plus IL-1β. An ELISA assay was used to measure the presence of IL-17A. The production of IL-17A is expected to be suppressed if IL-23 is inhibited. This assay confirms that systemic exposure of orally dosed peptide of SEQ ID NO: 1 is associated with systemic activity, as measured by lower IL-17A production.
Two or six hours after dosing, animals were euthanized and blood collected as described based on the following.
For determination of peptide concentration, an aliquot of blood from peptide-treated rats was deposited into K2EDTA microtainer tubes and processed to plasma by centrifugation at 16,100×g for 5 minutes. Plasma was deposited into 5% volume of protease inhibitor (1 cocktail tablet dissolved in 2 mL PBS without Ca^++ and Mg^++) and stored at −80° C. for bioanalysis of test article by LCMS. The remainder of each blood sample was separately diluted in pre-warmed RPMI-1640 (with glutamine and HEPES) at a ratio of one part blood to four parts medium. The diluted blood was mixed by pipetting and kept at room temperature while working stocks of rat IL-23 and IL-1β were prepared in RPMI-1640. The blood was mixed again and 240 μL was pipetted per well into 96-well, round-bottom assay plates, followed by IL-23 and IL-1β stimulation as described below.
A total of 10 μL of medium supplemented with IL-23 and IL-1β or IL-1β alone was added to each well of diluted blood such that the final concentration of IL-23 was 100, 20, or 4 ng/mL and the final concentration of IL-1β was 4 ng/mL. The assay plates were incubated at 37° C. in 5% CO2. After ˜24 hours, the assay plates were centrifuged at 1,300 rpm for 6 minutes at room temperature, and at least 100 μL of cell culture supernatant were collected into 96-well, V-bottom plates. The plates containing supernatants were sealed and placed on ice for immediate measurement of IL-17A or frozen at −80° C.
To measure IL-17A in cell culture supernatants, the thawed supernatants were centrifuged at 1,300 rpm for 10 minutes at 4° C. A total of 20 μL of cell culture supernatant was mixed with 80 μL of NS buffer (provided with the rat IL-17A ELISA kit). The diluted samples as well as a freshly prepared serial titration of rat IL-17A (for standard curve) were combined with affinity tag labeled capture and reporter conjugated detector antibodies in 96-well plates (provided with the rat IL-17A ELISA kit). Following a 1-hour incubation at room temperature with shaking, each well was washed 3 times with 350 μL/well wash buffer. After the final wash, the plates were inverted and blotted to remove excess liquid. The plates were developed with TMB substrate for 10 minutes, protected from light, with shaking. After stopping the colorimetric reaction, the absorbance in individual wells was read at 450 nm using a SpectraMax 340PC plate reader.
A standard curve was generated in duplicate for each ELISA plate. The standard curve data were analyzed with a four-parameter curve fit with 1/y^2 weighting using SoftMax Pro software. Supernatant IL-17A levels were interpolated or extrapolated from plate-specific standard curves using non-background subtracted optical density at 450 nm (OD450) values in SoftMax Pro and corrected for the dilution factor used in the ELISA assay in Microsoft Excel.

[2] = tested on: rat trinitrobenzenesulfonic acid (TNBS)-induced colitis model; assay: Rat TNBS-induced colitis model, efficacy; format: in vivo, Sprague-Dawley rats
Description: Intracolonic TNBS instillation in Sprague-Dawley rats induces colonic inflammation driven in part by IL-23/IL-23R signaling (Cheng X, Taranath R, Mattheakis L, Bhandari A, Liu D. The biomarker profile of PTG-200, an oral peptide antagonist of IL-23 receptor, tracks with efficacy in a preclinical model of IBD. J Crohns Colitis. AGA Abstracts, 2017). The TNBS rat model therefore provides a measure of the local GI effects of SEQ ID NO: 1 on IL-23/IL-23R signaling.
The peptide of SEQ ID NO: 1 was evaluated in the rat TNBS model with oral dosing only, three times a day (0.03, 0.1, 0.3, 1, 3, 10, mg/kg/day), in three independent rat TNBS experiments. In all studies, the peptide of SEQ ID NO: 1 was dosed starting 2 days prior to TNBS induction through day 6, with euthanasia scheduled on day 7.
Disease severity resulting from TNBS can be assessed by qualitative scoring of the formation of strictures, adhesions, ulceration, and increase in wall thickness as described previously. […] Based on this qualitative scoring, the peptide of SEQ ID NO: 1 at 0.1 mg/kg/day was considered to be the minimally efficacious dose for colonic score (FIG. 13).
Data from 3 different studies were combined (represented by shapes of the symbols at each dose level: study 1 (Δ), study 2 (♦), study 3 (∘); box at interquartile range, bars at minima/maxima). The colons were scored on the following parameters: adhesion (0-2), stricture (0-3), ulcer (0-5), and wall thickness (0-2) for a total sum component score range of 0-12. The colon score was reduced by treatment with the peptide of SEQ ID NO: 1 at doses of […] (ns=not significant, * p<0.05, *** p<0.001, **** p<0.0001).

CC(=O)NCCCC[C@@H]1NC(=O)[C@H](Cc2c[nH]c3c(C)cccc23)NC(=O)[C@H]([C@@H](C)O)NC(=O)[C@H](CC(N)=O)NC(=O)[C@@H](NC(C)=O)C(C)(C)SSC(C)(C)[C@@H](C(=O)N[C@@H](Cc2ccc(OCCN)cc2)C(=O)N[C@@H](Cc2ccc3ccccc3c2)C(=O)NC2(C(=O)N[C@@H](CCC(=O)O)C(=O)N[C@@H](CC(N)=O)C(=O)N[C@@H](Cc3cccnc3)C(=O)N(C)CC(N)=O)CCOCC2)NC1=O [SEQ ID NO: 1, Ac-[Pen]*—N-T-[W(7-Me)]-[Lys(Ac)]-[Pen]*-Phe[4-(2-aminoethoxy)]-[2-Nal]-[THP]-E-N-[3-Pal]-Sarc-NH2]
median IL-17A production relative to vehicle control ([1]; 10 mg/kg p.o., 2 hours post-dosing, 100, 20, or 4 ng/mL IL-23 and 4 ng/mL IL-1β): significantly reduced
median IL-17A levels ([1]; 10 mg/kg p.o., 6 hours post-dosing, 4 ng/mL IL-23): significant decrease
effect on ex vivo IL-17A response ([1]; 10 mg/kg p.o., 6 hours post-dosing, 100 and 20 ng/mL IL-23 and IL-1β): no significant effect
inhibition of IL-23 and IL-1β-induced IL-17A secretion in whole blood ([1]; 0.03-100 mg/kg): dose-dependent inhibition
inhibition of IL-23 and IL-1β-induced IL-17A secretion in whole blood ([1]; doses of 1 mg/kg or lower): limited effect
inhibition of IL-23 and IL-1β-induced IL-17A secretion in whole blood ([1]; doses of 30 and 100 mg/kg): complete or nearly complete inhibition
IC50 ([1]; blood challenged with 4 ng/mL IL-23 plus 4 ng/mL IL-1β): 0.032 nM
IC50 ([1]; blood challenged with 20 ng/mL IL-23 plus 4 ng/mL IL-1β): 0.27 nM
TNBS-induced weight loss ([2]; 0.03, 0.1, 0.3, 1, 3, and 10 mg/kg/day, all 3 studies): prevented and reversed
minimally efficacious dose, body weight ([2]; day 7 as the study endpoint): 0.3 mg/kg/day
minimal efficacious dose, TNBS-induced colitis model (summary) ([2]; rat, in vivo): 0.3 mg/kg/day
minimally efficacious dose, colonic score ([2]; rat, in vivo): 0.1 mg/kg/day
